# Assay results published in the supplement of paper PMC10307832.
# Tests used:
# Test in all cases: relative viability (nuclei count vs DMSO), 5 days (fraction); higher = more cells survive
# Venetoclax + Tozasertib = compound: CC1(C)CCC(CN2CCN(c3ccc(C(=O)NS(=O)(=O)c4ccc(NCC5CCOCC5)c([N+](=O)[O-])c4)c(Oc4cnc5[nH]ccc5c4)c3)CC2)=C(c2ccc(Cl)cc2)C1 [Venetoclax] + Cc1cc(Nc2cc(N3CCN(C)CC3)nc(Sc3ccc(NC(=O)C4CC4)cc3)n2)n[nH]1 [Tozasertib] (partner 0.1 µM)
# Outline: (§1)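 One day after seeding in 1536-well plates, lung cancer cell lines were dosed by pin tool. Dosing was either single-drug or a fixed anchor-drug dose plus five library-drug doses (not always all listed) in √10 steps. After 5 days, nuclei were stained in one fix-and-stain step and counted on 4× images, and relative viability is the nuclei count of treated wells over that of vehicle wells, given as the median of duplicate plates.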
# Venetoclax + AZD7762 = compound: CC1(C)CCC(CN2CCN(c3ccc(C(=O)NS(=O)(=O)c4ccc(NCC5CCOCC5)c([N+](=O)[O-])c4)c(Oc4cnc5[nH]ccc5c4)c3)CC2)=C(c2ccc(Cl)cc2)C1 [Venetoclax] + NC(=O)Nc1cc(-c2cccc(F)c2)sc1C(=O)N[C@H]1CCCNC1 [AZD7762] (partner 0.2 µM)
# Outline: as §1
# Venetoclax + Pemetrexed = compound: CC1(C)CCC(CN2CCN(c3ccc(C(=O)NS(=O)(=O)c4ccc(NCC5CCOCC5)c([N+](=O)[O-])c4)c(Oc4cnc5[nH]ccc5c4)c3)CC2)=C(c2ccc(Cl)cc2)C1 [Venetoclax] + Nc1nc2[nH]cc(CCc3ccc(C(=O)N[C@@H](CCC(=O)O)C(=O)O)cc3)c2c(=O)[nH]1 [Pemetrexed] (partner 0.2 µM)
# Outline: as §1
# Selumetinib + Phenformin = compound: Cn1cnc2c(F)c(Nc3ccc(Br)cc3Cl)c(C(=O)NOCCO)cc21 [Selumetinib] + N=C(N)NC(=N)NCCc1ccccc1 [Phenformin] (partner 250 µM)
# Outline: as §1
Cell Line,relative viability (Venetoclax + Tozasertib; first compound 0.01 µM),relative viability (Venetoclax + Tozasertib; first compound 0.03162 µM),relative viability (Venetoclax + Tozasertib; first compound 0.1 µM),relative viability (Venetoclax + Tozasertib; first compound 0.3162 µM),relative viability (Venetoclax + Tozasertib; first compound 1 µM),relative viability (Venetoclax + AZD7762; first compound 0.01 µM),relative viability (Venetoclax + AZD7762; first compound 0.03162 µM),relative viability (Venetoclax + AZD7762; first compound 0.1 µM),relative viability (Venetoclax + AZD7762; first compound 0.3162 µM),relative viability (Venetoclax + AZD7762; first compound 1 µM),relative viability (Venetoclax + Pemetrexed; first compound 0.01 µM),relative viability (Venetoclax + Pemetrexed; first compound 0.03162 µM),relative viability (Venetoclax + Pemetrexed; first compound 0.1 µM),relative viability (Venetoclax + Pemetrexed; first compound 0.3162 µM),relative viability (Venetoclax + Pemetrexed; first compound 1 µM),relative viability (Selumetinib + Phenformin; first compound 0.02 µM),relative viability (Selumetinib + Phenformin; first compound 0.06325 µM),relative viability (Selumetinib + Phenformin; first compound 0.2 µM),relative viability (Selumetinib + Phenformin; first compound 0.6325 µM)
NCI-H1651,0.751,0.681,0.636,0.639,0.599,0.505,0.481,0.486,0.428,0.386,0.628,0.674,0.561,0.529,0.57,0.329,0.264,0.281,0.298
NCI-H1666,0.706,0.589,0.623,0.622,0.587,0.915,0.849,0.715,0.839,0.803,0.726,0.916,0.919,0.805,0.799,0.506,0.534,0.569,0.565
NCI-H1734,0.275,0.241,0.216,0.269,0.239,0.529,0.671,0.474,0.665,0.571,0.417,0.459,0.399,0.422,0.393,0.351,0.298,0.345,0.248
NCI-H1755,0.569,0.504,0.586,0.593,0.547,0.445,0.471,0.379,0.386,0.411,0.39,0.475,0.397,0.441,0.407,0.628,0.594,0.584,0.53
NCI-H1793,0.227,0.347,0.321,0.297,0.237,0.638,0.441,0.346,0.299,0.259,0.944,0.976,0.732,0.799,0.713,0.364,0.349,0.316,0.273
NCI-H1915,0.452,0.454,0.392,0.433,0.427,0.657,0.658,0.655,0.695,0.611,0.405,0.499,0.484,0.517,0.476,0.423,0.371,0.271,0.284
NCI-H1944,0.267,0.246,0.238,0.273,0.228,0.74,0.573,0.429,0.479,0.468,0.669,0.592,0.571,0.607,0.589,0.192,0.195,0.157,0.168
NCI-H1975,0.763,0.711,0.726,0.658,0.374,0.737,0.709,0.672,0.822,0.67,0.261,0.279,0.276,0.309,0.281,0.426,0.378,0.379,0.34
NCI-H1993,0.588,0.561,0.614,0.58,0.607,0.635,0.787,0.651,0.816,0.763,0.565,0.579,0.599,0.57,0.668,0.506,0.569,0.466,0.551
NCI-H2085,0.833,0.77,0.757,0.761,0.815,0.802,1.02,0.924,0.962,0.916,0.756,0.948,0.86,0.823,0.798,0.637,0.623,0.602,0.481
NCI-H2087,0.278,0.261,0.245,0.241,0.229,1.26,1.32,1.17,1.46,1.56,0.7,0.65,0.785,0.707,0.668,0.367,0.279,0.294,0.214
NCI-H2126,0.822,0.791,0.867,0.86,0.759,1.06,1.01,0.932,1.02,1,0.748,0.737,0.67,0.653,0.611,0.526,0.453,0.466,0.434
NCI-H2170,0.723,0.68,0.592,0.646,0.632,0.735,0.805,0.692,0.806,0.763,0.25,0.278,0.259,0.259,0.253,0.408,0.395,0.386,0.326
NCI-H2342,0.59,0.617,0.375,0.568,0.656,0.734,0.75,0.491,0.388,0.53,0.872,0.784,0.747,0.738,0.717,0.623,0.618,0.564,0.722
NCI-H2347,0.581,0.634,0.476,0.597,0.541,0.729,0.894,0.663,0.723,0.76,0.486,0.425,0.437,0.438,0.444,0.401,0.256,0.187,0.283
NCI-H2405,0.741,0.783,0.632,0.736,0.645,0.628,0.722,0.744,0.748,0.657,0.98,1.16,0.979,1.06,0.963,0.344,0.319,0.296,0.164
